Measurements from ChEMBL document CHEMBL1201862, “PubChem BioAssay data set” (2004).
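Protocol summary: plate cells (96-well), add compound at 5 concentrations, incubate 48 h, interpolate endpoints linearly. Here, GI50 denotes the concentration required for 50% inhibition of growth.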 The source made the active and inactive calls. No stated cut-off is given here; in the data, active = GI50 up to about 1.1 µM and inactive = higher.

Assays:
Assay in all cases: inhibition of tumour cell growth, NCI panel, 48 h
RPMI-8226 = tested on: RPMI-8226
DLD-1 = tested on: DLD-1
K562 = tested on: K562
Malme-3M = tested on: Malme-3M
NCI-H23 = tested on: NCI-H23
MOLT-4 = tested on: MOLT-4
RXF 393 = tested on: RXF 393
SW-620 = tested on: SW-620
M19-MEL = tested on: M19-MEL
M14 = tested on: M14
SF-295 = tested on: SF-295
SK-MEL-28 = tested on: SK-MEL-28
TK-10 = tested on: TK-10
SNB-19 = tested on: SNB-19
LOX IMVI = tested on: LOX IMVI
SK-MEL-5 = tested on: SK-MEL-5
A549 = tested on: A549
OVCAR-8 = tested on: OVCAR-8
OVCAR-5 = tested on: OVCAR-5
HOP-62 = tested on: HOP-62
SNB-75 = tested on: SNB-75
HT-29 = tested on: HT-29
U-251 = tested on: U-251
HL-60 = tested on: HL-60
SK-OV-3 = tested on: SK-OV-3
HCC 2998 = tested on: HCC 2998
CCRF-CEM = tested on: CCRF-CEM
NCI-H460 = tested on: NCI-H460
LXFL 529 = tested on: LXFL 529
CAKI-1 = tested on: CAKI-1
SR = tested on: SR
OVCAR-4 = tested on: OVCAR-4
KM12 = tested on: KM12
ACHN = tested on: ACHN
IGROV-1 = tested on: IGROV-1
COLO 205 = tested on: COLO 205
SK-MEL-2 = tested on: SK-MEL-2
HCT-15 = tested on: HCT-15
SF-268 = tested on: SF-268
DMS-273 = tested on: DMS-273
UO-31 = tested on: UO-31
NCI-H522 = tested on: NCI-H522
NCI-H226 = tested on: NCI-H226
UACC-257 = tested on: UACC-257
UACC-62 = tested on: UACC-62
SN12C = tested on: SN12C
DMS-114 = tested on: DMS-114
A498 = tested on: A498
786-0 = tested on: 786-0
EKVX = tested on: EKVX
KM-20L2 = tested on: KM-20L2
HCT-116 = tested on: HCT-116
OVCAR-3 = tested on: OVCAR-3
XF498 = tested on: XF498
HOP-92 = tested on: HOP-92
SF-539 = tested on: SF-539
HOP-18 = tested on: HOP-18
SNB-78 = tested on: SNB-78

Measured: GI50

O=C(/C=N/O)Nc1cccc(Cl)c1I
79.1 µM: HCT-15
inactive: RPMI-8226 30.6 µM | DLD-1 63.4 µM | K562 53.5 µM | Malme-3M 40.6 µM | NCI-H23 59.2 µM | MOLT-4 42.3 µM | RXF 393 23.7 µM | SW-620 > 100 µM | M19-MEL 80.7 µM | M14 47.2 µM | SF-295 50.7 µM | SK-MEL-28 > 100 µM | TK-10 44.7 µM | SNB-19 55.7 µM | LOX IMVI 96.8 µM | SK-MEL-5 40.8 µM | A549 46 µM | OVCAR-8 81.5 µM | OVCAR-5 > 100 µM | HOP-62 83.4 µM | SNB-75 12.8 µM | HT-29 > 100 µM | U-251 39.2 µM | HL-60 34.4 µM | SK-OV-3 28.5 µM | HCC 2998 > 100 µM | CCRF-CEM 49.1 µM | NCI-H460 > 100 µM | LXFL 529 25 µM | CAKI-1 32.3 µM | SR 30.7 µM | OVCAR-4 28.9 µM | KM12 65.6 µM | ACHN 57.4 µM | IGROV-1 26.5 µM | COLO 205 89.9 µM | SK-MEL-2 24.9 µM | SF-268 35.9 µM | DMS-273 > 100 µM | UO-31 23.9 µM | NCI-H522 26.1 µM | NCI-H226 > 100 µM | UACC-257 56.9 µM | UACC-62 43.1 µM | SN12C 47.8 µM | DMS-114 23.3 µM | A498 27.7 µM | 786-0 > 100 µM | EKVX 8.83 µM | KM-20L2 > 100 µM | HCT-116 53.6 µM | OVCAR-3 30.1 µM | XF498 46.3 µM

O=C(NC(Cc1ccccc1)C(=O)CCl)OCc1ccccc1 (stereo not given)
5 µM: HCT-15
inactive: RPMI-8226 4.06 µM | DLD-1 9.64 µM | K562 3.2 µM | Malme-3M 11.4 µM | NCI-H23 9.2 µM | SW-620 4.26 µM | HOP-92 13 µM | M19-MEL 13.7 µM | M14 10.6 µM | SF-295 14.1 µM | SK-MEL-28 12.1 µM | TK-10 15 µM | SNB-19 12.3 µM | LOX IMVI 1.76 µM | SK-MEL-5 13.4 µM | A549 18.2 µM | OVCAR-8 4.38 µM | SF-539 4.76 µM | OVCAR-5 11.8 µM | HOP-62 15.3 µM | SNB-75 11.5 µM | HT-29 16.6 µM | U-251 10.8 µM | HL-60 3.07 µM | SK-OV-3 14.4 µM | HCC 2998 18.1 µM | CCRF-CEM 2.74 µM | HOP-18 11.7 µM | NCI-H460 5.74 µM | LXFL 529 3.6 µM | CAKI-1 5.15 µM | SR 6.24 µM | KM12 10 µM | ACHN 10.1 µM | IGROV-1 13.2 µM | COLO 205 7.16 µM | SK-MEL-2 10.3 µM | SF-268 5.05 µM | DMS-273 5.02 µM | UO-31 12.9 µM | NCI-H522 1.67 µM | UACC-257 13 µM | UACC-62 9.2 µM | SN12C 4.91 µM | DMS-114 1.22 µM | A498 14.1 µM | 786-0 3.83 µM | KM-20L2 7.69 µM | HCT-116 13.6 µM | SNB-78 24.8 µM | OVCAR-3 5.24 µM

Cc1cc(O)nc(NN2C(Cl)C(=O)C2c2c(O)ccc3ccccc23)n1 (stereo not given)
inactive: RPMI-8226 15.5 µM | K562 23.2 µM | NCI-H23 16.4 µM | MOLT-4 16.3 µM | RXF 393 13.2 µM | SW-620 30.2 µM | HOP-92 16.4 µM | M19-MEL 39.6 µM | M14 15.2 µM | SK-MEL-28 19.5 µM | TK-10 37.2 µM | SNB-19 20.7 µM | LOX IMVI 13.7 µM | SK-MEL-5 15.2 µM | A549 36.2 µM | OVCAR-8 27.4 µM | SF-539 21.9 µM | OVCAR-5 36.9 µM | HOP-62 15.1 µM | SNB-75 8.75 µM | HT-29 25 µM | U-251 21.9 µM | HL-60 14.1 µM | HCC 2998 15 µM | CCRF-CEM 6.76 µM | HOP-18 12 µM | NCI-H460 15 µM | LXFL 529 15.2 µM | SR 12 µM | OVCAR-4 17.3 µM | KM12 23 µM | ACHN 20.7 µM | IGROV-1 38.5 µM | COLO 205 25.9 µM | SK-MEL-2 15.2 µM | SF-268 23.1 µM | DMS-273 16.4 µM | UO-31 26.1 µM | NCI-H226 13 µM | UACC-257 31.2 µM | UACC-62 20.3 µM | SN12C 21.7 µM | DMS-114 19.8 µM | EKVX 43.8 µM | KM-20L2 22.6 µM | HCT-116 17.3 µM | SNB-78 20.1 µM | OVCAR-3 13.2 µM
15.6 µM: HCT-15
